Experimental data taken from patent publication US8846750B2, “Pharmaceutical and food compositions for preventing or treating diabetes or obesity” (Korea Ocean Research and Development Institute, priority 2010, dated 2014).
Where “and” joins values, the source holds several entries; their conditions need not be identical. Equal entries are not always repeated.

Legend:
[1] = target: T1, PTP-1b (protein tyrosine phosphatase-1b) (Homo sapiens, UniProt P18031); assay: PTP-1b inhibitory activity, malachite green assay with [pTyr1146] insulin receptor substrate; format: biochemical; details: PTP-1b (Bioneer), absorbance at 620 nm; read-out: IC50 against PTP-1b
T1 construct: purchased Bioneer, Korea
T1 sequence (P18031 1-435): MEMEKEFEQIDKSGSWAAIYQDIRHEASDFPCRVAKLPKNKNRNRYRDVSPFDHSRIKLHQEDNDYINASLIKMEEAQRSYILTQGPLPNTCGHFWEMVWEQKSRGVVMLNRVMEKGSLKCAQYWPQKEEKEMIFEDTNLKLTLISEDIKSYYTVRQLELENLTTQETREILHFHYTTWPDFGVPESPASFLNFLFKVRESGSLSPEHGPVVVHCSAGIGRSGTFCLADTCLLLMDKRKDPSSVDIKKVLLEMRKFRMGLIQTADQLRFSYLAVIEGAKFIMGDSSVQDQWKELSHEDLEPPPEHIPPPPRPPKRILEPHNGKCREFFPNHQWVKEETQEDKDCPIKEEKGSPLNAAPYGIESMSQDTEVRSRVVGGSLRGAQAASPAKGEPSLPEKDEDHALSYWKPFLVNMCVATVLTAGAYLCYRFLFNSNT
Description: In order to analyze the PTP-1b (protein tyrosine phosphatase-1b) inhibitory activity of sodium lobarate, the activity of the enzyme was spectroscopically measured.
(§1) Specifically, to 0.5 mg/Ml of PTP-1b (Bioneer, Korea) in PTP-1b buffer (20 mM Tris-HCl, pH 8.0, 0.75 mM NaCl, 0.5 mM EDTA, 5 mM β-mercaptoethanol, 50% glycerol), 0, 1, 3, 10, 30, 100, 300, 1,000 and 3,000 nM of sodium lobarate and the substrate [pTyr1146] insulin receptor (1142-1153, Sigma, USA) were added. Each mixture was allowed to react at room temperature for 10-30 minutes, and malachite green-molybdate dye solution was added thereto and reacted at room temperature for 10 minutes. After completion between PTP-1b, sodium lobarate and the substrate, the absorbance at 620 nm was measured.
The activity of the enzyme was spectroscopically measured to analyze the protein PTP-1b inhibitory activity of Lobarin.
as §1, with “Tris-HCL,” for “Tris-HCl,”, “1000 or 3000” for “1,000 and 3,000”, “Lobarin” for “of sodium lobarate”, “of the mixtures” for “mixture”, “Lobarin” for “sodium lobarate”
The activity of the enzyme was spectroscopically measured to analyze the protein PTP-1b inhibitory activity of Lobarstin. Specifically, to 0.5 mg/Ml of PTP-1b (Bioneer, Korea) in PTP-1b buffer (20 mM Tris-HCL, pH 8.0, 0.75 mM NaCl, 0.5 mM EDTA, 5 mM β-mercaptoethanol, 50% glycerol), 0, 1, 3, 10, 30, 100, 300, 1000 or 3000 nM Lobarstin and the substrate [pTyr1146] insulin receptor (1142-1153, Sigma, USA) were added. […] After completion between PTP-1b, Lobarstin and the substrate, the absorbance at 620 nm was measured.

[2] = test system: db/db mice (type 2 diabetic model animals); assay: Change in blood glucose level after intraperitoneal administration; format: in vivo; details: 10 mg/kg intraperitoneally daily; for increase in the blood glucose level compared with control group: days 0-21; for average blood glucose level: db/db mice
Description: (§2) Based on pre-tests, effectiveness tests and toxicity tests for sodium lobarate, dose (expressed as test compound amount (mg)/test animal's weight (kg)) was determined. To 7-week-old male db/db mice (type 2 diabetic model animals, C57/BLKS/J-db/db, the Korea Research Institute of Bioscience and Biotechnology), 200 μl of PBS for a control group and 10 mg/kg of sodium lobarate (PTP-1b activity inhibitory compound) for a test group was administered, respectively, intraperitoneally daily, and the blood glucose levels of the animals were measured twice a week.
Specifically, sodium lobarate (PTP-1b activity inhibitory compound) was administered by intraperitoneal injection to 7-week-old male db/db mice (type 2 diabetic model animals, C57/BLKS/J-db/db, the Korea Research Institute of Bioscience and Biotechnology), and the change in the blood glucose level of the animals was measured.
as §2, with “Lobarin,” for “sodium lobarate,”, “Lobarin” for “sodium lobarate (PTP-1b activity inhibitory compound)”
Specifically, Lobarin was administered by intraperitoneal injection to 7-week-old male db/db mice (type 2 diabetic model animals, C57/BLKS/J-db/db, the Korea Research Institute of Bioscience and Biotechnology), and the change in blood glucose level of the animals was measured.
as §2, with “Lobarstin,” for “sodium lobarate,”, “Lobarstin” for “sodium lobarate (PTP-1b activity inhibitory compound)”
Specifically, Lobarstin was administered by intraperitoneal injection to 7-week-old male db/db mice (type 2 diabetic model animals, C57/BLKS/J-db/db, the Korea Research Institute of Bioscience and Biotechnology), and the change in blood glucose level of the animals was measured.

Row | IC50 [1] | Compound | increase in the blood glucose level compared with control group [2] | average blood glucose level ([2]; day 0) [mg/dL] | average blood glucose level ([2]; day 3) [mg/dL] | average blood glucose level ([2]; day 7) [mg/dL] | average blood glucose level ([2]; day 10) [mg/dL] | average blood glucose level ([2]; day 14) [mg/dL] | average blood glucose level ([2]; day 17) [mg/dL] | average blood glucose level ([2]; day 21) [mg/dL]
1 | 149 nM and 155 nM | CCCCCc1c(Oc2cc(OC)cc3c2C(=O)OC3(O)CCCC)c(O)cc(O)c1C(=O)O (stereo not drawn) [Lobarin] | less than that in the control group | 267 | 278 | 298 | 315 | 352 | 379 | 425
2 | 155 nM | CCC/C=C1/OC(=O)c2c(Oc3c(O)cc(O)c(C(=O)O)c3CCCCC)cc(OC)cc21 [Lobarstin] | less than that in the control group | 299 |  | 259 |  | 267 |  | 242
3 | 350 nM | CCCCCc1c2c(cc(O)c1C(=O)[O-])OC(=O)c1c(cc(OC)cc1C(=O)CCCC)O2.[Na+] [sodium lobarate] | less than that in the control group | 267 | 276 | 378 | 378 | 407 | 415 | 459
